These results are taken from patent publication US12017995B2, “Crystalline forms and salt forms of a kinase inhibitor” (Exelixis, Inc., priority 2018, dated 2024).

Entries after “also recorded” stand apart in the source; their conditions may differ. Where two headings read alike, the source gives them in different places.

Common to all, as to assay type: physicochemical
Series [1] in a line: Stability testing in open vials, 75% RH chamber at 40° C., analysed by PLM and XRPD. Particulars: 15 days / approximately 2 weeks, XRPD. On the procedure: (§1) The physical stability of Hemifumarate Form B was investigated. Compound 1 Hemifumarate Form B was slurried in water at ambient conditions for approximately 24 hours. In a separate experiment, the material was repeatedly washed with acetone.
Stability Testing: Various Compound 1 salts were placed in open vials within a 75% RH chamber (saturated sodium chloride solution). The RH chamber was placed in a 40° C. oven for 15-16 days. Samples were analyzed by PLM and XRPD upon the end of the duration.

A short description of series [2]: Disproportionation check: water slurry at ambient conditions and repeated acetone wash, XRPD of recovered material. The procedure: as §1
Solids were then collected by vacuum filtration and analyzed by XRPD.

Series [3] is described as follows: Dynamic vapor sorption (DVS). To be noted: for crystalline form of post-DVS sample by XRPD: after sorption/desorption; for water vapor uptake / weight gain by DVS: from 5% to 95% RH. On the procedure: Dynamic Vapor Sorption (DVS)
a. VTI: Automated vapor sorption (VS) data were collected on a VTI SGA-100 Vapor Sorption Analyzer. NaCl and PVP were used as calibration standards. Samples were dried prior to analysis. Sorption and desorption data were collected over a range from 5% to 95% RH at 10% RH increments under a nitrogen purge. The equilibrium criterion used for analysis was less than 0.0100% weight change in 5 minutes with a maximum equilibration time of 3 hours. Data were not corrected for the initial moisture content of the samples.
b. Intrinsic: Automated vapor sorption (VS) data were collected on a Surface Measurement System DVS Intrinsic instrument. Samples were not dried prior to analysis. Sorption and desorption data were collected over a range from 5% to 95% RH at 10% RH increments under a nitrogen purge. The equilibrium criterion used for analysis was less than 0.0100% weight change in 5 minutes with a maximum equilibration time of 3 hours. Data were not corrected for the initial moisture content of the samples.

A short description of series [4]: pKa and log P determination (Pion Inc./Sirius Analytical Instruments Ltd.). The procedure: pKa and log P Determination: pKa and log P determination were performed by Pion Inc./Sirius Analytical Instruments Ltd. in East Sussex, United Kingdom.

For `CNC(=O)c1cc2c(Oc3ccc(NC(=O)C4(C(=O)Nc5ccc(F)cc5)CC4)cc3)ccnc2cc1OC` [Compound 1 Hemifumarate Form B], the “physical stability at 40° C. and 75% RH” value in series [1] was “physically stable; also recorded: did not change by XRPD”. Also, the “disproportionation of the salt in acetone” value in series [2] (repeatedly washed with acetone) is listed as “disproportionation was not evident; also recorded: did not cause disproportionation”. Besides, the “disproportionation of the salt in water” value in series [2] (slurried in water at ambient conditions for approximately 24 hours) is reported as “disproportionation was not evident; also recorded: did not cause disproportionation”. For the same molecule, in series [3] (DVS isotherm), the “hygroscopicity by DVS” value is “not hygroscopic”. Moreover, in series [3], the “crystalline form of post-DVS sample by XRPD” value was “remained unchanged” and the “water vapor uptake / weight gain by DVS” value was “about 0.2 wt %”. Further, in series [3] (sorption/desorption 5% to 95% RH, without hysteresis), the “weight gain/loss through the DVS sorption/desorption experiment” value is listed as “less than 0.2%”.

In the case of `CNC(=O)c1cc2c(Oc3ccc(NC(=O)C4(C(=O)Nc5ccc(F)cc5)CC4)cc3)ccnc2cc1OC` [Compound 1 Form A, 1-N′-(4-Fluorophenyl)-1-N-[4-[7-methoxy-6-(methylcarbamoyl)quinolin-4-yl]oxyphenyl]cyclopropane-1,1-dicarboxamide], the “hygroscopicity by DVS (class)” value in series [3] (5% to 95% RH) is on record as “Limited”. In series [3], the “crystalline form of post-DVS sample by XRPD” value was “no change in crystalline form” and the “water vapor uptake / weight gain by DVS” value is reported as ~0.91 wt %. For the same molecule, the pKa in series [4] amounted to 5.43 ± 0.4. Further, the logP in series [4] (read-out: cationic log P) worked out at 1.79 ± 0.8. For the same molecule, the logP in series [4] (read-out: neutral log P) worked out at 4.5 ± 0.5.
